Experimental data taken from patent publication US9968617B2, “Local topical administration formulations containing indoxacarb” (E.I. du Pont de Nemours and Company, priority 2006, dated 2018).
“And” between values parts separate entries of the source, which are not always exact repeats. Equal entries are not always repeated.

Experiments:
[1] = test system: fleas (Ctenocephalides felis); experiment: Dose response study on canines against fleas, Indoxacarb spot-on (Example 1); assay type: in vivo; conditions: for reduction of flea infestation: dogs
Procedure: A non-blinded prospective longitudinal artificial infestation parasite efficacy pen study was conducted with a fully randomized design (ranking and blocking based on breed and pre-treatment flea count). There were 5 treatment groups of 6 dogs each, and an untreated control group.
Thirty-three (33) adult dogs (Labrador Retrievers and Jack Russell Terriers) were inducted, clinically examined, weighed, identified and allocated to study pens on Day −7. Each dog was artificially infested with 100 fleas (Ctenocephalides felis) on Day −5 and again on Day −2. On Day −1 flea thumb counts were performed on all dogs and 30 dogs were selected for inclusion. These dogs were randomly allocated to 5 similar groups of 6 animals on the basis of breed and flea counts, and groups were allocated to study pens. On Day 0, Groups B, C, D and E were treated with a local topical administration formulation containing Indoxacarb (DPX-K128) dissolved in a mixture of Dimethyl Isosorbide (DMI) and Propylene Glycol Monomethyl Ether (90% Dimethyl Isosorbide (DMI) and 10% Propylene Glycol Monomethyl Ether by volume) to form a total concentration of 75, 100, 125 or 150 g/L of Indoxacarb (DPX-K128). The starting material to prepare the formulation was a mixture of DPX-K128-and DPX-KN127 (the R-isomer of Formula 1) and contained 70.43% Indoxacarb (DPX-K128). […] The formulation was administered via spot-on application (i.e. applying in liquid form to less than or equal to 10% of the surface area of the animal) to the dorsal midline at the rate of 0.1 mL/1 kg. Group A remained untreated as controls. Group B was dosed at the rate of 7.5 mg/kg; Group C at the rate of 10.0 mg/kg; Group D at the rate of 12.5 mg/kg; and Group E at the rate of 15.0 mg/kg.
Flea thumb counts were performed at 24 hours. Flea comb counts were performed at 48 hours post-treatment and all dogs then treated with Capstar® oral tablets (Nitenpyram, Novartis Animal Health) to remove all fleas prior to the next infestation. Animals were re-infested with 100 adult fleas at 7, 14, 21 and 28 days post-treatment. At 24 hours after each infestation, flea comb counts were performed followed by Capstar treatment.

[2] = test system: fleas; experiment: Effect of washing on persistency, flea comb count on dogs (Example 2); assay type: in vivo, Ctenocephalides felis; conditions: for Group Average Count: Day 44; for Flea Count: individual dog, Day 44, infested with 100 fleas Day 43
Procedure: At completion of the study described in Experiment 1 above, a further washing study was conducted using the six dogs in Group E for a further two weeks.
During the two-week period, four of the six dogs from Group E were washed twice weekly in a non-insecticidal hydrobath, while the other two dogs from Group E were not washed and acted as controls. On Day 43 post-treatment, the 6 dogs were infested with 100 fleas and then had their ability to retain a flea infestation assessed on Day 44 by a flea comb count.

COC(=O)N(C(=O)N1CO[C@@]2(C(=O)OC)Cc3cc(Cl)ccc3C2=N1)c1ccc(OC(F)(F)F)cc1 [Indoxacarb, (S)-methyl 7-chloro-2,5-dihydro-2-[[(methoxycarbonyl)[4-(trifluoromethoxy)phenyl]amino]carbonyl]indeno[1,2-e][1,3,4]oxadiazine-4a(3H)-carboxylate]
persistent efficacy, reduction ([1]; all four groups (7.5-15.0 mg/kg), from the 48 hour count until 29 days post-treatment): ≥ 99%
reduction of flea infestation ([1]; spot-on 7.5 mg/kg (Group B), 24 hrs post-treatment): 97.9%
reduction of flea infestation ([1]; spot-on 7.5 mg/kg (Group B), 48 hrs post-treatment): 99.4%
reduction of flea infestation ([1]; spot-on 10.0 mg/kg (Group C), 24 hrs post-treatment): 97.9%
reduction of flea infestation ([1]; spot-on 10.0 mg/kg (Group C), 48 hrs post-treatment): 100%
reduction of flea infestation ([1]; spot-on 12.5 mg/kg (Group D), 24 hrs post-treatment): 99.0%
reduction of flea infestation ([1]; spot-on 12.5 mg/kg (Group D), 48 hrs post-treatment): 100%
reduction of flea infestation ([1]; spot-on 15.0 mg/kg (Group E), 24 hrs post-treatment): 100%
reduction of flea infestation ([1]; spot-on 15.0 mg/kg (Group E), 48 hrs post-treatment): 99.4%
persistence after washing ([2]; 44 days, after 4 shampoo hydrobath washes): excellent persistence
Group Average Count ([2]; Treated Non-Wash): 0
Group Average Count ([2]; Treated Wash): 3
Flea Count ([2]; Treated Non-Wash (15.0 mg/kg)): 0
Flea Count ([2]; Treated Wash (15.0 mg/kg, washed twice weekly for two weeks)): 4 and 5 and 1 and 2
